The subject of experiment [1] is Enterococci (E. faecium and E. faecalis). The experiment is described as follows: In vitro antibacterial evaluation, Enterococci. The note with it: in words. The experiment is classed as cell-based. Here is the method:
(§1) The compounds of the invention were evaluated against several β-lactamresistant bacteria strains by determining the minimum inhibitory concentration (MIC, μg/ml) of each compound with respect to each strain. The MIC, the lowest concentration of antibiotic which inhibits growth of the test organism, was determined by the agar dilution method.
(§2) To determine the MIC for bacterial isolates, the test compound was incorporated in a series of two-fold dilutions into liquified Mueller-Hinton agar. Upon solidification, a number of different bacterial strains were spot inoculated with a replicating device onto the agar surface. […] The procedures used in these studies have been standardized by the National Committee for Clinical Laboratory Standards (NCCLS), as per the NCCLS publication entitled METHODS FOR DILUTION ANTIMICROBIAL SUSCEPTIBILITY TESTS (1991), which is incorporated herein by reference.
(§3) Aliquots of antimicrobial agents were prepared in phosphate buffered saline (PBS) at pH 7.2. Tween 20 or DMSO was used as a solubilizing vehicle as needed. Standard methods of vortexing, sonicating and gentle heat were used to facilitate solubilizing the test agent. Typically, the concentration of the stock solution was 10× that of the highest drug concentration tested. A 1.28 mg/mL stock solution was used with a subsequent highest working concentration of 128 μg/mL. Serial two-fold dilutions were done through ≤0.25 μg/mL. Each drug level was tested in duplicate. Two-fold drug dilutions were done in sterile 50 mL tubes with a final drug volume of 5 mL. Upon the addition of 45 mL of molten agar, a 10-fold dilution resulted. Two, 25 mL. plates were then poured into 15×150 mm square Petri plates with grids and allowed to harden.
A control plate with a reference drug, either cefotaxime, vancomycin or imipenem, was used as the positive growth control. […]
(§4) Disposable sterile 1 μL loops were used to inoculate test plates, with each isolate in a designated grid on the agar plate. […] Endpoints were assessed as the minimum inhibitory concentration (MIC) of antimicrobial agent.

Experiment [2] relates to S. aureus Col8A (Meth^S) (lac^-). Briefly: MIC by agar dilution, S. aureus Col8A (Meth^S) (lac^-). The experiment is classed as cell-based. The note with it: for activity against S. aureus Col 8A: in words, lacks PBP2a. The protocol:
as §1, §2, §3
(§5) A control plate with a reference drug, either cefotaxime, vancomycin or imipenem, was used as the positive growth control. Stock concentrations of reference antibiotics were prepared and frozen at -80° C. Upon preparation, the control plates were sealed and stored in the refrigerator for up to 1 week prior to use; however, imipenem control plates had to be prepared just prior to use. All test plates were used within 24 hours of preparation.
(§6) Satisfactory results were obtained where the inoculum contained about 10^4 colony forming units (cfu) ±0.5 logs. Starting with pure cultures of the test isolates on agar plates, a few isolated colonies were transferred to a tube of nutrient broth and allowed to grow 4-6 hours at 35°-36° C. to reach log-phase growth. Dropwise addition of the broth culture to PBS was done to match a 0.5 McFarland turbidity standard equal to 10^8 cfu/mL. This was further diluted ten-fold in PBS to reach a working inoculum concentration of 10^7 cfu/mL. When 1 μL of the working inoculum was applied to the agar surface a concentration of about 10^4 cfu per spot was obtained.
(§7) Disposable sterile 1 μL loops were used to inoculate test plates, with each isolate in a designated grid on the agar plate. An alternate method of inoculation involved the use of a replica plater, a device with 48 steel pins allowing the simultaneous inoculation of multiple isolates. After the spots had dried, the plates were incubated at 35°-36° C. for 16-20 hours. Endpoints were assessed as the minimum inhibitory concentration (MIC) of antimicrobial agent.
The novel agents of this invention are notable for their enhanced activity against S. aureus Col and Enterococci (E. faecium and E. faecalis). The S. aureus Col strain is a high-level PBP2a producer, whereas S. aureus Col 8A, its isogenic partner, lacks PBP2a. […] Thus, the compounds of the present invention are effective against PBP2a-producing bacteria.
Background: In agar dilution the substance is mixed into plates at graded concentrations.

Experiment [3] has as its system S. aureus Col (Meth^R) (lac^-). Briefly: MIC by agar dilution, S. aureus Col (Meth^R) (lac^-). The note with it: for MIC: agar dilution, S. aureus Col (Meth^R) (lac^-); for activity against S. aureus Col: in words, PBP2a producer. The experiment is classed as cell-based. In a few lines: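 Log-phase isolates were spot-inoculated at about 10^4 cfu onto Mueller-Hinton agar carrying duplicate two-fold compound levels, 128 μg/mL to ≤0.25 μg/mL, following NCCLS (1991). Plates were read after 16-20 h at 35°-36° C. The lowest growth-inhibiting concentration gave the MIC (μg/ml).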

For a further experiment, the system named is MRSA strains. The note with it: in words, reported; cited from earlier work.
The test system of the next experiment is E. faecium ATCC 35667. Briefly: MIC by agar dilution, E. faecium ATCC 35667. The experiment is classed as cell-based. Here is the method:
as §1, §2, §3, §5, §6, §7

The test system of another experiment is S. haemolyticus (Meth^R). Briefly: MIC by agar dilution, S. haemolyticus (Meth^R). The experiment is classed as cell-based. The protocol: as §1, §2, §3, §5, §6, §7
A further experiment relates to S. aureus ATCC 25923. The experiment is described as follows: MIC by agar dilution, S. aureus ATCC 25923. The experiment is classed as cell-based. The protocol: as §1, §2
(§8) Aliquots of antimicrobial agents were prepared in phosphate buffered saline (PBS) at pH 7.2. Tween 20 or DMSO was used as a solubilizing vehicle as needed. Standard methods of vortexing, sonicating and gentle heat were used to facilitate solubilizing the test agent. […]
as §4

The subject of experiment [4] is S. aureus 76 (Meth^R) (lac^+). The experiment is described as follows: MIC by agar dilution, S. aureus 76 (Meth^R) (lac^+). The experiment is classed as cell-based. The protocol:
as §1, §2, §3, §5, §6, §7

The test system of a further experiment is P. aeruginosa ATCC 27853. Briefly: MIC by agar dilution, P. aeruginosa ATCC 27853. The experiment is classed as cell-based. The protocol: as §1, §2, §3, §5, §6, §7
Another experiment has as its system E. faecalis ATCC 29212. Briefly: MIC by agar dilution, E. faecalis ATCC 29212. The experiment is classed as cell-based. Here is the method:
as §1, §2, §3, §5, §6, §7

The test system of experiment [5] is S. epidermidis ATCC 31432. The experiment is described as follows: MIC by agar dilution, S. epidermidis ATCC 31432. The experiment is classed as cell-based. The protocol: as §1, §2, §8, §4
Another experiment has as its system E. coli ATCC 25922. The experiment is described as follows: MIC by agar dilution, E. coli ATCC 25922. The experiment is classed as cell-based. Here is the method:
as §1, §2, §3, §5, §6, §7

Experiment [6] has as its system methicillin-susceptible S. aureus strain ATCC 13709. The experiment is described as follows: murine model for lethal bacteremic peritonitis. The note with it: subcutaneous, 72 h. The experiment is classed as in vivo, female Swiss-Webster mice. A digest of the protocol:
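Female Swiss-Webster mice challenged IP with an LD100 titer of bacteria in 7% hog gastric mucin; groups of 10 treated SC with twofold drug increments (0.01–512 mg/kg) as two equal doses at challenge and 2 h later. Survival followed for 72 h; PD50 (total mg/kg) calculated by probit method.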

Experiment [7] deals with S. aureus strain ATCC 13709. The experiment is described as follows: Challenge strain MIC. The experiment is classed as cell-based. The note with it: Staphylococcus aureus, ATCC13709; S. aureus ATCC 13709; read-out: Challenge str MIC. Here is the method:
as §1, §2
reported for challenge with methicillin-susceptible S. aureus

Setting [8] is: Staphylococcus aureus, read-out: MIC.

Converted amounts (≈) assume the structure as drawn. “And” between values parts separate entries of the source, which are not always exact repeats. Equal values may be shown once. Where a name gives a salt, the structure may show the parent alone. Read-outs that look alike come from different tables or passages of the source. Bounds are passed on as bounds.

In general, MIC refers to the least concentration at which growth counts as inhibited. Regarding `O=C(Cc1ccccc1)N[C@@H]1C(=O)N2C(C(=O)O)=C(Sc3ccccc3-c3ccccc3)CS[C@H]12` [Cmpd 9, (7R)-7-[(Phenylacetyl)amino]-3-(2-biphenylthio)-3-cephem-4-carboxylic acid], the “activity against Enterococci” value in [1] is on record as “broad activity”. Moreover, the “activity against S. aureus Col 8A” value in experiment [2] was “broad activity”. In addition, the MIC in experiment [3] (setting [8]) amounted to 4 µg/mL (≈ 7.96 µM). Besides, in experiment [3], the “activity against S. aureus Col” value is “broad activity”.

On to `C[C@@H](O)[C@H]1C(=O)N2C(C(=O)O)=C(SCCN=CN)C[C@H]12` [imipenem], for which the “activity against MRSA strains” value in the experiment with MRSA strains is listed as “active against a few MRSA strains”.

Take “(7R)-7-[(Phenylacetyl)amino]-3-(2,3-dihydro-2,2-dimethylbenzofuran-7-yl)-3-cephem-4-carboxylic acid [Cmpd 55]”: the minimum inhibitory concentration (MIC) against E. faecium ATCC 35667 was 8 µg/mL; against S. haemolyticus (Meth^R) it was 16 µg/mL; against S. aureus ATCC 25923, under 0.25 µg/mL; in experiment [4], 16 µg/mL; in the experiment on P. aeruginosa ATCC 27853 it was over 32 µg/mL; against E. faecalis ATCC 29212 it was 16 µg/mL. Moreover, the MIC is under 0.25 µg/mL in experiment [2] (agar dilution, S. aureus Col8A (Meth^S) (lac^-)); 4 µg/mL in experiment [3]; under 0.25 µg/mL in experiment [5]; over 32 µg/mL in the experiment on E. coli ATCC 25922.

In the case of `O=C(Cc1ccccc1)N[C@@H]1C(=O)N2C(C(=O)O)=C(Sc3ccccc3I)CS[C@H]12` [Cmpd 6, (7R)-7-[(Phenylacetyl)amino]-3-(o-iodophenylthio)-3-cephem-4-carboxylic acid], the Mortality in experiment [6] (dose 0.625 mg/kg) is recorded as 9/10; in experiment [6] (dose 1.25 mg/kg), 4/10; in [6] (dose 2 mg/kg), 8/10; in experiment [6] (dose 2.5 mg/kg), 4/10; in experiment [6] (dose 4 mg/kg), 5/10; in [6] (dose 5 mg/kg), 1/10. Further, the values for the Mortality in [6] (dose 8 mg/kg), in experiment [6] (dose 10 mg/kg) and in [6] (dose 16 mg/kg) were 1/10, 1/10 and 0/10, respectively. Also, the “activity against Enterococci” value in experiment [1] is listed as “broad activity”. Further, in experiment [2], the “activity against S. aureus Col 8A” value was “broad activity”. Besides, the “activity against S. aureus Col” value in [3] is recorded as “broad activity”.

For orientation: ED50 means the dose at which the effect has come halfway, by size or by number of responders. `N=C(N)NCCSCC(=O)N[C@@H]1C(=O)N2C(C(=O)O)=C(Sc3ccccc3CSC(=N)N)CS[C@H]12` [Cmpd 137, (7R)-7-[((2-guanidinoethylthio)acetyl)amino]-3-(2-isothiouroniummethylphenylthio)-3-cephem-4-carboxylate, trifluoroacetic acid salt]: the MIC amounted to 0.125 µg/mL in [7] and 2 µg/mL in experiment [3] (setting [8]). In addition, the Mortality in [6] (dose 0.0391 mg/kg) is 8/10; in experiment [6] (dose 0.0781 mg/kg) it was 9/10; in experiment [6] (dose 0.1562 mg/kg, trifluoroacetic acid salt), 7/10 and 9/10; in experiment [6] (dose 0.3125 mg/kg, trifluoroacetic acid salt) it was 5/10 and 8/10; in [6] (dose 0.625 mg/kg, trifluoroacetic acid salt), 6/10 and 1/10; in [6] (dose 1.25 mg/kg), 0/10. The Mortality in experiment [6] (dose 2.5 mg/kg) is 0/10. For the same compound, in [6] (two equal doses, S. aureus ATCC 13709 IP challenge, trifluoroacetic acid salt, 4320 min), the ED50 is listed as 0.38 mg/kg.

The values above are taken from patent US5698547A, “Cephalosporin antibiotics” (Microcide Pharmaceuticals, Inc., priority 1995, dated 1997).
